Test results reported in PMC3871529, “At a Supra-Physiological Concentration, Human Sexual Hormones Act as Quorum-Sensing Inhibitors” (PLoS ONE, 2013).
Where two headings read alike, the source gives them in different places.

Experiments:
[1] = test system: Agrobacterium biosensor cells; assay: Minimal bactericidal concentration (MBC); format: cell-based, Agrobacterium tumefaciens; details: 99.9% reduction of 10^5 CFU/ml after 36 h at 30°C
Protocol: Aside from the effect of QSI on QS regulation, the toxicity of these compounds was tested on bacterial cells by measuring two parameters: the minimal inhibitory concentration (MIC) and minimal bactericidal concentration (MBC). MIC, which is the lowest concentration of QSI (µg/ml) inhibiting any visible culture after 36 h of incubation at 30°C, was estimated by culturing 10^5 CFU/ml of the Agrobacterium biosensor cells in the presence of different concentrations of the QSI. MBC, which is the lowest concentration of QSI (µg/ml) that results in a 99.9% reduction of the initial bacterial population (10^5 CFU/ml) after 36 h of incubation at 30°C in the presence of different concentrations of QSI, was estimated by plating 100 µL of the Agrobacterium cultures on agar LBm plates. After an incubation of 48 h at 30°C, CFU were counted and the MBC values were calculated.

[2] = test system: QS-regulated Ti-plasmid transfer in A. tumefaciens; assay: QS-regulated Ti-plasmid transfer (conjugation) assay; format: cell-based, Agrobacterium tumefaciens; details: QSI at 0.1 mg/ml, OC8-HSL 500 pM, 72 h at 24°C
Protocol: Figure 4 In vitro Ti plasmid transfer frequency in Agrobacterium. The Ti plasmid transfer frequencies were measured in the presence of QSI (A) and the four 1248-diastereoisomeres (B) at 0.1 mg/ml. Histograms represent the cell density of transconjugants (CFU/ml), while black diamonds and squares, those of the donor and recipient strains, respectively. Measurements were performed in quadruplicate and the experiment was repeated twice. The cell densities of transconjugants in the presence of QSI were compared to that of the control in the presence of DMSO with a Mann and Whitney test (α = 0.05). Statistically different values are noted by asterisks.
In A. tumefaciens, the transfer of the Ti-plasmid from a donor cell to a recipient one is controlled by QS. QSI were evaluated for their capacity to reduce plasmid transfer frequency in Agrobacterium. In the plasmid transfer assay, two modified Agrobacterium strains were used: a Ti-plasmid donor, which requires exogenous AHL to transfer a kanamycin-resistant (Km^r) Ti-plasmid, and a rifampicin-resistant (Rif^r) recipient strain, which is free of Ti-plasmid. Overnight cultures of the donor and recipient strains were mixed with 500 pM of oxo-octanoylhomoserine lactone (OC8-HSL) and 0.1 mg/ml of QSI in LBm medium. Each combination was repeated 4 times in microwell plates.

[3] = target: T1, RhlR (Pseudomonas aeruginosa, UniProt P54292); assay: E. coli bioindicator expressing RhlR (pAL101, rhlI::luxCDABE luminescence); format: cell-based; details: C4-HSL 10 µM; QSIs at 0.1 mg/ml, naringenin and naringin at 0.5 mg/ml
T1 construct: expressed in transfected cells; host or cells: Escherichia coli JLD271 carrying pAL101 (pSB401-derivative, rhlR+ rhlI::luxCDABE)
T1 sequence (P54292 whole entry): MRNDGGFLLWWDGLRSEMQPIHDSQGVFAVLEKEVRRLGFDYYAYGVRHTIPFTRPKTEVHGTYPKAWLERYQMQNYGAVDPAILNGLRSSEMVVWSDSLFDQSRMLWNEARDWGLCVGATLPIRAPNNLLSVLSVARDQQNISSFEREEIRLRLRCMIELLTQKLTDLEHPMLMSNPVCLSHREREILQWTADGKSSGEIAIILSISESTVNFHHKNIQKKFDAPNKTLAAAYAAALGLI
Protocol: We determined whether the AHL-binding transcriptional factors LasR and RhlR were impaired in their capacity to activate expression of the QS-regulated genes in the presence of various QSIs. This was achieved by using two E. coli bioindicator strains expressing either LasR or RhlR proteins and harboring an appropriate reporter lux operon for measuring their transcriptional activity in the presence of OC12-HSL at 100 µM and C4-HSL at 10 µM, respectively. Adding C4-HSL to the pAL101-bioindicator or OC12-HSL to the pAL105-bioindicator induced the expression of the reporter lux operon and the consequent production of luminescence. In contrast, only background levels of luminescence were detected in control strains harboring the plasmids pAL102 or pAL106, which lacks the rhlR or lasR gene, respectively.
Figure 7 QSIs modulated activity of the AHL-sensors in P. aeruginosa. Luminescence of the reporting operon lux, expressed in relative light units (RLU/OD600), was measured in E. coli bioindicator strains harboring the LasR (A) and RhlR (B) AHL-sensing systems of P. aeruginosa in the presence of […]. The QSIs estradiol, estrone, estriol and hordenine were added at 0.1 mg/ml, while naringenin and naringin, added at 0.5 mg/ml, were used as QSI-reference and non-QSI reference, respectively. Each test (n = 6) was compared with the DMSO-condition using Student's t test. Asterisks indicate statistically different data (p value of ≤0.01).
Escherichia coli JLD271 biosensor strains harboring LasR- and RhlR-based plasmids pAL105 and pAL101 and control plasmids pAL106 (LasR^-) and pAL102 (RhlR^−) (Table 1) were prepared according to Vandeputte et al.. Briefly, these strains were grown in LB medium supplemented with tetracycline (10 µg/ml) and chloramphenicol (25 µg/ml) for 24 h. Then 50-µl portions of the cultures were subcultured in 1 ml of LB medium (the starting OD600 ranged between 0.02 and 0.025 corresponding to 5.10^6 CFU) supplemented with 10 µl of DMSO (1% [vol/vol] final), 10 µl of naringenin or naringin dissolved in DMSO (2 mM, final concentration), or 10 µl of the molecule to be tested. To induce the expression of the lux operon, 0, 1, 10 or […] of C4-HSL was added to pAL101 and pAL102, while OC12-HSL was added to pAL105 and pAL106. After incubation for 2 h at 37°C with agitation (175 rpm), 200 µl of culture was transferred to 96-well OptiPlate-96 F plates from Perkin-Elmer, and the luminescence of each sample was measured by using a TopCount NXT device from Perkin-Elmer. The LasR(pAL106) and RhlR(pAL102) biosensors were used for background subtraction, and the OD600 values were measured to account for the differences in cell density. All experiments were performed in six replicates. The statistical significance of each test was evaluated by conducting Student's t tests using the GraphPad Prism software, and p values ≤0.05 were considered significant. Naringenin (4′,5,7-trihydroxyflavanone), naringin (4′,5,7-trihydroxyflavanone 7-rhamnoglucoside), the AHLs OC12-HSL and C4-HSL were purchased from Sigma-Aldrich and dissolved freshly in 100% DMSO before use. Tested QSIs were dissolved in 100% DMSO before use.

| Molecule | MBC [1] [µg/mL] | effect on Ti plasmid transfer frequency (words) [2] | effect on Ti plasmid transfer frequency (words) ([2]; listed as estrone) | effect on RhlR functionality (lux luminescence) [3] | MBC ([1]; Agrobacterium, read-out: MBC) [µg/mL] | effect on Ti plasmid transfer frequency (words) ([2]; listed as hordenine) |
| --- | --- | --- | --- | --- | --- | --- |
| 3-Hydroxy-13-methyl-6,7,8,9,11,12,13,14,15,17-decahydro-cyclopenta[a] phenanthren-16-one [Compound 729, reference compound] | >100 | significantly reduce the plasmid transfer frequency by one order of magnitude | decreased the frequency | significant impact | – | – |
| CN(C)CCc1ccc(O)cc1 [Compound 3499, hordenine] | – | significantly reduce the plasmid transfer frequency by one order of magnitude | – | significant impact | > 100 | decreased the frequency |
| C[C@]12CC[C@@H]3c4ccc(O)cc4CC[C@H]3[C@@H]1C[C@@H](O)[C@@H]2O [Estriol, estriol] | – | significantly reduce the plasmid transfer frequency by one order of magnitude | – | significant impact | > 100 | – |
